Patent publication US10493126B2, “Combination therapy for ameliorating adverse side effects caused by chemotherapy” (YEASTERN BIOTECH CO., LTD, priority 2014, dated 2019)
“And” between values parts separate entries of the source, which are not always exact repeats. Identical values can stand only once.

What was measured:
[1] = tested on: BALB/cByJNarl mice; test: Complete blood count in Docetaxel mice model; format: in vivo
Excerpt: (§1) Male BALB/cByJNarl mice (6-8 weeks old) were purchased from National Laboratory Animal Center (NLAC) in Taiwan and randomly divided into four groups, with five mice in Groups Docetaxel+PBS, Docetaxel+FIP-fve and Docetaxel+FIP-gts each and four in Control group. The mice were housed under pathogen-free conditions with a 12-hour light/12-hour dark schedule, and fed an autoclaved diet with ad libitum access to standard rodent chow (Laboratory Rodent Diet 5001, LabDiet, St. Louis, Mo., USA). Three days before the administration of Docetaxel (namely, Day-3), the mice in the Docetaxel+PBS Group started to be fed phosphate-buffered saline (PBS) at 100 μL/animal/day, and the daily feeding of PBS continued throughout the experiment. The mice were injected intravenously in the tail vein with Taxotere® (Aventis Pharma Ltd., Dagenham, UK) at a dose of 30 mg/kg body weight on Days 1, 8 and 15. The Docetaxel+FIP-fve and Docetaxel+FIP-gts Groups were administered Taxotere® at the same dose on the same days as described above. Additionally, the two treatment groups daily received 100 μL PBS added with either 200 μg FIP-fve or 400 μg FIP-gts throughout the experiment starting from Day-3 until the end of the experiment (Day 18). The FIP-gts protein used in this and other Examples disclosed herein was produced according to the method disclosed in WO2005040375A1. The FIP-fve protein used herein was purified from F. velutipes by the method disclosed in Ko J. L., Eur. J. Biochem. 1995; 228:244-249. The mice of the Control Group were given with PBS alone at 100 μL/animal/day without being injected with anti-cancer agent. Blood was sampled from the orbital sinus of the mice on days 4, 11 and 18 for subsequent analysis. The animals were sacrificed by CO2 asphyxiation on day 18. The protocol of the experiment is illustrated in FIG. 1.

[2] = tested on: BALB/cByJNarl mice; test: Micro CT of tibia, trabecular bone micro-architecture, Docetaxel mice model; format: in vivo; conditions: for porosity of knee, distal femur and proximal tibia samples, in words: FIG. 3B/3C, versus the mice group injected with Docetaxel alone
Excerpt: as §1
Tibiae were separated from right hind limbs of the mice and defleshed. Afterwards, individual tibiae were placed into 15 mL Falcons conical centrifuge tubes (Becton, Dickinson and Company, Franklin Lakes, N.J., USA) and covered with 70% ethanol. The tibia samples were sent to the Taiwan Mouse Clinic, funded by the National Research Program for Biopharmaceuticals (NRPB) of the National Science Council (NSC) in Taiwan, where the samples were scanned by applying three-dimensional micro-computed tomography (micro CT) in a high-resolution low-dose X-ray scanner (SkyScan 1076, Aartselaar, Belgium) and assessed for trabecular bone micro-architecture. For histological analysis, some tibia samples were demineralized in 10% EDTA for two weeks, dehydrated in graded ethanol solutions and embedded in paraffin wax using a Leica ASP300S tissue processor (Leica Microsystems Nussloch GmbH). Deparaffinized sections were stained with hematoxylin and eosin (H&E staining) and then observed under microscope.

[3] = tested on: human patients with stage III or IV lung cancer; test: Clinical study: FIP-gts tablets with Taxotere and cisplatin/carboplatin; format: in vivo; design: key to ECOG: 0: Asymptomatic (Fully active, able to carry on all pre-disease activities without restriction); 1: Symptomatic but completely ambulatory (Restricted in physically strenuous activity but ambulatory and able to carry out work of a light or sedentary nature. For example, light housework, office work); 2: Symptomatic, <50% in bed during the day (Ambulatory and capable of all self care but unable to carry out any work activities. Up and about more than 50% of waking hours); 3: Symptomatic, >50% in bed, but not bedbound (Capable of only limited self-care, confined to bed or chair 50% or more of waking hours); 4: Bedbound (Completely disabled. Cannot carry on any self-care. Totally confined to bed or chair); 5: Death; conditions: columns = course days; for Hb: in g/dL (unit assumed); for Cr.: in mg/dL (unit assumed)
Method: The inventors further conducted a clinical study on diminished quality of life (QOL) and cancer-related fatigue (CRF) caused by chemotherapy. The QOL and CRF of selected human patients were evaluated by the Eastern Cooperative Oncology Group (ECOG) Performance Status Scale from 0 to 5 (Oken M. M., et al., Am. J. Clin. Oncol.; 1982, 5(6): 649-55), where each grade represents:
Five human patients with stage III or IV lung cancer were enrolled in this study. During the study, each patient was administered Taxotere® at either a low dose of 20-30 mg/m^2 or a high dose of 60-69 mg/m^2 in conjunction with cisplatin/carboplatin on the designated days as prescribed by the physician, and received daily two tablets of FIP-gts (3 mg/tablet). The patients were asked to come back to the hospital on the designated days for follow up at the clinic and collection of blood samples. The patients were assessed for quality of life and fatigue according to the ECOG performance status system described above. The medical records of the five patients, as well as the administration regimens for the patients, were illustrated in Tables III.A-III.E below.

[4] = tested on: human lymphocytes; conditions: 3H-thymidine, compared to PHA; cited from earlier work
[5] = tested on: BALB/cByJNarl mice; test: Structural integrity of jejunal villus, H&E histology, Docetaxel mice model; format: in vivo; conditions: mice jejunum, FIG. 2A/2B
Excerpt: (§2) Male BALB/cByJNarl mice (6-8 weeks old) were purchased from National Laboratory Animal Center (NLAC) in Taiwan and randomly divided into four groups, with five mice in Groups Docetaxel+PBS, Docetaxel+FIP-fve and Docetaxel+FIP-gts each and four in Control group. The mice were housed under pathogen-free conditions with a 12-hour light/12-hour dark schedule, and fed an autoclaved diet with ad libitum access to standard rodent chow (Laboratory Rodent Diet 5001, LabDiet, St. Louis, Mo., USA). Three days before the administration of Docetaxel (namely, Day-3), the mice in the Docetaxel+PBS Group started to be fed phosphate-buffered saline (PBS) at 100 μL/animal/day, and the daily feeding of PBS continued throughout the experiment. The mice were injected intravenously in the tail vein with Taxotere® (Aventis Pharma Ltd., Dagenham, UK) at a dose of 30 mg/kg body weight on Days 1, 8 and 15. The Docetaxel+FIP-fve and Docetaxel+FIP-gts Groups were administered Taxotere® at the same dose on the same days as described above. […]
Intestinal samples from the jejunum of the sacrificed mice were fixed in 10% formalin and embedded in paraffin wax. […] The histological images of villi appeared in the intestinal samples are shown in FIG. 2A, and the lengths of villi measured by an NIS-Elements D 3.2 image analysis system (Nikon, Japan) were shown in FIG. 2B.

[6] = tested on: BALB/cByJNarl mice; test: Bone marrow adipogenesis in tibia, H&E histology, Docetaxel mice model; format: in vivo; conditions: FIG. 4A/4B, compared to the Control
Excerpt: as §2, with “15.” for “15. The Docetaxel+FIP-fve and Docetaxel+FIP-gts Groups were administered Taxotere® at the same dose on the same days as described above.”
Tibiae were separated from right hind limbs of the mice and defleshed. […] The tibia samples were sent to the Taiwan Mouse Clinic, funded by the National Research Program for Biopharmaceuticals (NRPB) of the National Science Council (NSC) in Taiwan, where the samples were scanned by applying three-dimensional micro-computed tomography (micro CT) in a high-resolution low-dose X-ray scanner (SkyScan 1076, Aartselaar, Belgium) and assessed for trabecular bone micro-architecture. […]

[7] = Patient Case 3, Taxotere + cisplatin + daily FIP-gts, chemotherapy course 1, April
[8] = Patient Case 3, Taxotere + cisplatin + daily FIP-gts, chemotherapy course 2, May 10
[9] = Patient Case 3, Taxotere + cisplatin + daily FIP-gts, chemotherapy course 3, May
[10] = Patient Case 4, low dose Taxotere + cisplatin/carboplatin + daily FIP-gts
[11] = Patient Case 4, low dose Taxotere + cisplatin/carboplatin + daily FIP-gts, in U/L (unit assumed)
[12] = Docetaxel 30 mg/kg i.v. Days 1, 8, 15, daily FIP-fve 200 μg or FIP-gts 400 μg in 100 μL PBS from Day -3, Day 18
[13] = mice tibia, micro CT, Day 18, Docetaxel 30 mg/kg i.v., FIP-fve 200 μg or FIP-gts 400 μg daily

Which “WBC level, in words” value ([1]; co-treatment with Docetaxel) does the source give for “FIP-gts: fungal immunomodulatory protein of Ganoderma tsugae, SEQ ID NO: 1, produced according to WO2005040375A1; 3 mg tablets in the clinical study” here?
The value was “remarkably restored the WBC level to its control value”.

What about the “porosity of knee, distal femur and proximal tibia samples, in words” value ([2]; micro CT) of the same molecule?
Its value is “considerably less porous”.

And the ECOG ([3]; Patient Case 1, Taxotere + cisplatin/carboplatin + daily FIP-gts)?
The ECOG was 1.

And the ECOG ([3]; Patient Case 2, Taxotere + cisplatin/carboplatin + daily FIP-gts)?
The ECOG was 1.

And the ECOG ([3]; Patient Case 3, Taxotere + cisplatin + daily FIP-gts)?
The ECOG was 0.

What about the AST ([3]; Patient Case 3, Taxotere + cisplatin + daily FIP-gts, in U/L (unit assumed), chemotherapy course 1, April) of the same molecule?
Its AST is 14.

What about the AST ([3]; Patient Case 3, Taxotere + cisplatin + daily FIP-gts, in U/L (unit assumed), chemotherapy course 2, May 10) of the same molecule?
The AST was 13.

What about the AST ([3]; Patient Case 3, Taxotere + cisplatin + daily FIP-gts, in U/L (unit assumed), chemotherapy course 3, May) of the same molecule?
The AST was 15.

What about the Hb [3, 7] of the same molecule?
Its Hb is 14.9.

What about the Hb [3, 8] of the same molecule?
Its Hb is 13.9.

What about the Hb [3, 9] of the same molecule?
Its Hb is 12.

And the Cr. [3, 7]?
Its Cr. is 1.09.

And the Cr. [3, 8]?
Its Cr. is 0.94.

And the Cr. [3, 9]?
Its Cr. is 0.86.

What about the ECOG [3, 10] of the same molecule?
Its ECOG is 1.

What about the ALT [3, 11] of the same molecule?
Its ALT is 10 and 9.

And the AST [3, 11]?
The AST was 18 and 13 and 15.

And the Hb [3, 10]?
The Hb was 11.2 and 10 and 8.6 and 9.5 and 9.6 and 8.9.

And the Cr. [3, 10]?
Its Cr. is 0.8 and 0.89 and 1.15.

And the ECOG ([3]; Patient Case 5, low dose Taxotere + cisplatin + daily FIP-gts)?
Its ECOG is 0.

And the “concentration sufficient to reach the maximum proliferation of human lymphocytes” value [4]?
The value was 5 µg/mL.

Which results are given for `CC(=O)O[C@@]12CO[C@@H]1C[C@H](O)[C@@]1(C)C(=O)[C@H](O)C3=C(C)[C@@H](OC(=O)[C@H](O)[C@@H](NC(=O)OC(C)(C)C)c4ccccc4)C[C@@](O)([C@@H](OC(=O)c4ccccc4)[C@H]21)C3(C)C` [Docetaxel, (2R,3S)-N-carboxy-3-phenylisoserine, N-tert-butyl ester, 13-ester with 5, 20-epoxy-1,2,4,7, 10, 13-hexahydroxytax-11-en-9-one 4-acetate 2-benzoate, trihydrate]?
HCT [1, 12]: 39.94 ± 1.19%; HGB [1, 12]: 11.77 ± 0.31 g/dL; MCH [1, 12]: 15.00 ± 0.16 pg; MCHC [1, 12]: 29.48 ± 0.05 g/dL; MCV [1, 12]: 50.82 ± 0.49 fL; MPV [1, 12]: 6.71 ± 0.17 fL; PLT [1, 12]: 317.88 ± 60.27 10^3/μL; RBC [1, 12]: 7.86 ± 0.24 ×10^6/μL; RDW [1, 12]: 29.26 ± 0.73 fL; WBC [1, 12]: 3.29 ± 0.80 ×10^3/μL; levels of white blood cells (WBC), red blood cells (RBC), hemoglobin (HGB), hematocrit (HCT) and platelets (PLT), in words ([1]; Docetaxel alone compared with the Control group): considerable reduction; structural integrity of villi, in words [5]: severely damaged and blunted; Bone surface density BS/TV [2, 13]: 3.852 1/U; Percent bone volume BV/TV [2, 13]: 5.634%; Structure model index SMI [2, 13]: 2.1757; Trabecular number Tb.N [2, 13]: 0.8566 1/U; Trabecular separation Tb.Sp [2, 13]: 0.5623 U; Trabecular thickness Tb.Th [2, 13]: 0.06577 U; structural integrity of the tibia, in words ([2]; micro CT, FIG. 3A, compared to the Control Group): much more osteo-porous than the Control; Docetaxel-induced osteoporosis, in words ([2]; tibia samples, from trabecular number, percent bone volume, trabecular separation): induction of osteoporosis; adipogenesis in tibia bone marrow, in words [6]: increase in marrow adipose tissue

B1: FIP-fve: fungal immunomodulatory protein purified from F. velutipes, SEQ ID NO: 2 (protein)
chain: SATSLTFQLAYLVKKIDFDYTPNWGRGTPSSYIDNLTFPKVLTDKKYSYRVVVNGSDLGVESNFAVTPSGGQTINFLQYNKGYGVADTKTIQVFVVIPDTGNSEEYIIAEWKKT
modifications: Flammulina Velutipes
Which “HGB and PLT levels, in words” value ([1]; reduction caused by Docetaxel) does the source give for B1 here?
The value was “lessened the reduction”.

And the “porosity of knee, distal femur and proximal tibia samples, in words” value ([2]; micro CT)?
Its value is “considerably less porous”.

What about the “concentration sufficient to reach the maximum proliferation of human lymphocytes” value [4] of the same molecule?
Its value is 100 µg/mL.
